Measured values: patent US11427548B2 (Arvinas Operations, Inc., priority 2015, dated 2022)
Where two headings read alike, the source gives them in different places.

How the values were obtained:
Assay type in all cases: cell-based
[1] = system: VCaP cells; experiment: VCaP cell proliferation assay (Cell Titer Glo), GI50; conditions: Homo sapiens, VCaP cells, 0.1 nM R1881, read-out: GI50, Inhibition of VCaP Proliferation
Description: 2. VCaP Cell Proliferation Assay.
VCaP cells are plated 7,500/well 200 μL/well in VCaP assay medium [Phenol red free RPMI (Gibco Cat #11835-030); 5% Charcoal Stripped (Dextran treated) FBS (Omega Scientific, Cat #FB-04); Pen/Strep Life Technologies (Gibco Cat #: 10378-016); 0.1 nM R1881 (Sigma, Cat #R0908) is added upon the start of the assay, not during initial plating of the cells).
The assay was performed as follows: the cells are grown for a minimum of 3 days to deplete androgens; dosing of PROTACs and R1881 is performed as for AR ELISA; the baseline reading of Cell Titer Glo can be performed on day of dosing.
VCaP cells with 0.1 nM R1881 will double once in 4 days. Gently draw off 110 μL of media so as not to disturb the adherent cells; add 110 μL of CTG; incubate with slow shaking for 20 minutes; and read luminescence on a plate reader.

[2] = biological target: T1, Androgen Receptor (Homo sapiens, UniProt P10275); experiment: Androgen Receptor ELISA assay (PathScan AR ELISA) in VCaP cells: AR degradation, Dmax and DC50
T1 construct: endogenous in cells; host or cells: VCaP cells
T1 sequence (P10275 1-920): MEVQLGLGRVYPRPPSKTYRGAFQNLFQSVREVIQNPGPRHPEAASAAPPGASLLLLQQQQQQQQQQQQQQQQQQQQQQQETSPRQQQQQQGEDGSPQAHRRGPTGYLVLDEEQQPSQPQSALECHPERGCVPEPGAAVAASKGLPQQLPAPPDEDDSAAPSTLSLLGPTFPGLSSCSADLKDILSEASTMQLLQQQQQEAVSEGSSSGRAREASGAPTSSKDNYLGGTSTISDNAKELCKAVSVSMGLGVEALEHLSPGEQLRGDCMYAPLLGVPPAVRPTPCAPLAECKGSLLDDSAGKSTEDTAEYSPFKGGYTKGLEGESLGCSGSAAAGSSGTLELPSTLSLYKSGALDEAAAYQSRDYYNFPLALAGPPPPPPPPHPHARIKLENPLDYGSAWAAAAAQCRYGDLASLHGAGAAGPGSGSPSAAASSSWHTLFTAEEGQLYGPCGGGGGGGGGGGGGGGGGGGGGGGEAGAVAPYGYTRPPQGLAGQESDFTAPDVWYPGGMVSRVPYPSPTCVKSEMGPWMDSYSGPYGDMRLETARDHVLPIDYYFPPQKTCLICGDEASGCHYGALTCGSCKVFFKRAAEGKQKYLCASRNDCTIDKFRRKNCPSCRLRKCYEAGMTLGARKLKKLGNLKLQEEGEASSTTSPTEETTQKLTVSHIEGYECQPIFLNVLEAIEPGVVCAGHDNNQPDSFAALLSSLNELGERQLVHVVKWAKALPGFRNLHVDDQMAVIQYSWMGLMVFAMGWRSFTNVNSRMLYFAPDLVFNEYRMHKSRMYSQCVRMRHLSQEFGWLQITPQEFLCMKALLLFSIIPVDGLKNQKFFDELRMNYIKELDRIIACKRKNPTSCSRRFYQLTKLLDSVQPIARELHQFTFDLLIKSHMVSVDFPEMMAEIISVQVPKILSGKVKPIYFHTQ
Outline: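 VCaP cells in phenol red-free RPMI with 5% charcoal-stripped FBS were grown at least 3 days, then given compound as 7 half-log doses in 0.1% DMSO with 0.1 nM R1881 for 24 h. Lysates went into a sandwich AR ELISA with TMB read at 450 nm.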

[3] = biological target: T2, Androgen Receptor (Homo sapiens, UniProt P10275+P40337, T878A); experiment: Androgen Receptor ELISA assay (PathScan AR ELISA) in LNCaP cells: AR degradation, Dmax and DC50; conditions: for DC50: concentration that caused 50% Androgen Receptor degradation; for Dmax: highest percentage of Androgen Receptor degradation
T2 construct: Compounds have been evaluated in this assay in LNCaP and/or VCaP cells utilizing similar protocols; endogenous in cells; host or cells: LNCaP cells

[4] = VCaP, highest percentage of Androgen Receptor degradation observed, VCaP cells (Table 32); read-out: VCaP Dmax (%)
[5] = read-out: VCaP DC50; VCaP cells; concentration that caused 50% Androgen Receptor degradation

T2 sequence (P10275 whole entry T878A): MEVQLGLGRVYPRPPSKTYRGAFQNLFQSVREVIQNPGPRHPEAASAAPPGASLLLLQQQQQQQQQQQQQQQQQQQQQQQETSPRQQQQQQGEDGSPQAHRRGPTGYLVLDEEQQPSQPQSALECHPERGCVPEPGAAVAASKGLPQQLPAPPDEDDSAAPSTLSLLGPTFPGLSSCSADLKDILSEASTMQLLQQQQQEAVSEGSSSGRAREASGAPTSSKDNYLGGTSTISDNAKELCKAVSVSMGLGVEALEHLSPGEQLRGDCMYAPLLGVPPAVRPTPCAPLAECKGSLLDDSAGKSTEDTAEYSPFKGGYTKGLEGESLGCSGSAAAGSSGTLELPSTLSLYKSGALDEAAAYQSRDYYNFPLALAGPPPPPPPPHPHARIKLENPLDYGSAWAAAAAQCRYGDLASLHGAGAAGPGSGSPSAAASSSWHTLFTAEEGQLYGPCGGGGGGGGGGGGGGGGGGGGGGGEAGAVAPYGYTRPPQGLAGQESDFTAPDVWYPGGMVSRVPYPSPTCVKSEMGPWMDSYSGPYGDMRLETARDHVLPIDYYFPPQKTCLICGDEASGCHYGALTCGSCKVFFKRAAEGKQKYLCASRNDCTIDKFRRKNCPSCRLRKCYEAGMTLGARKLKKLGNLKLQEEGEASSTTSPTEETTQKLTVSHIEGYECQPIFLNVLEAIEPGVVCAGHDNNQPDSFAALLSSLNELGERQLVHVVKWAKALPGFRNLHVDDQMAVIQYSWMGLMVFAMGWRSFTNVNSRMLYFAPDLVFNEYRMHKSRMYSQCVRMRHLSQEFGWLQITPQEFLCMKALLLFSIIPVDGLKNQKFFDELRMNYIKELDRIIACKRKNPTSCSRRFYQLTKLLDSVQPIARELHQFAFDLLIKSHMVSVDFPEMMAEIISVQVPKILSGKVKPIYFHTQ
T2 sequence (P40337 whole entry): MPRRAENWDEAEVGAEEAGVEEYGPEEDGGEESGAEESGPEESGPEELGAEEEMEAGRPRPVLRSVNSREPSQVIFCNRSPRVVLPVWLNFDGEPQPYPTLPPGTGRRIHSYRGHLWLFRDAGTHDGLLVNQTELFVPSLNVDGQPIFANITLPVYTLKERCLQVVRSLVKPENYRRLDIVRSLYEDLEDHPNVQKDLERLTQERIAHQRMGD
T2 sequence (Q15369 whole entry partner): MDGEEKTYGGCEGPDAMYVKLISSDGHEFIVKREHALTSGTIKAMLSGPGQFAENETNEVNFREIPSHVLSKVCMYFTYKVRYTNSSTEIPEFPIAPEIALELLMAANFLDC
T2 sequence (Q15370 whole entry partner): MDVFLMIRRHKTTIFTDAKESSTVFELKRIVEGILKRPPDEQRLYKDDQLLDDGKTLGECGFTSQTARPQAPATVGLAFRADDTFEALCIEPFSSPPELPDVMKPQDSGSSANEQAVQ

## CC1(C)[C@H](N)C(C)(C)[C@H]1Oc1ccc(C#N)c(Cl)c1 [ABM-26]
[1]; Table 38 (ABM)
  GI50: 51 to 250 nM

## CC1(C)[C@H](N)C(C)(C)[C@@H]1Oc1ccc(C#N)c(Cl)c1 [ABM-27]
[1]; Table 38 (ABM)
  GI50: ≥ 251 nM

## CC(C)(C)OC(=O)N[C@H]1C(C)(C)[C@H](Oc2ccc(C#N)c(Cl)c2)C1(C)C [ABM-29]
[1]; Table 38 (ABM)
  GI50: 51 to 250 nM

## CC1(C)[C@H](NC(=O)c2ccc(N)cc2)C(C)(C)[C@H]1Oc1ccc(C#N)c(Cl)c1 [ABM-30]
[1]; Table 38 (ABM)
  GI50: ≤ 50 nM

## CC1(C)[C@H](NC(=O)c2cnc(N)cn2)C(C)(C)[C@H]1Oc1ccc(C#N)c(Cl)c1 [ABM-31]
[1]; Table 38 (ABM)
  GI50: 51 to 250 nM

## COc1ccc(C(=O)N[C@H]2C(C)(C)[C@H](Oc3ccc(C#N)c(Cl)c3)C2(C)C)cc1 [ABM-33]
[1]; Table 38 (ABM)
  GI50: 51 to 250 nM

## CC1(C)[C@H](NC(=O)c2cnn(CCO)c2)C(C)(C)[C@H]1Oc1ccc(C#N)c(Cl)c1 [ABM-34]
[1]; Table 38 (ABM)
  GI50: ≥ 251 nM

## CC1(C)[C@H](NC(=O)c2ccc(NCCCCCO)cc2)C(C)(C)[C@H]1Oc1ccc(C#N)c(Cl)c1 [ABM-36]
[1]; Table 38 (ABM)
  GI50: ≤ 50 nM

## CC(C)(C)OC(=O)COCCCCCNc1ccc(C(=O)N[C@H]2C(C)(C)[C@H](Oc3ccc(C#N)c(Cl)c3)C2(C)C)cc1 [ABM-37]
[1]; Table 38 (ABM)
  GI50: ≤ 50 nM

## Cc1ncsc1-c1ccc(CNC(=O)[C@@H]2C[C@@H](O)CN2C(=O)[C@@H](NC(=O)COC[C@@H](O)CCOc2ccc(-c3ccc(N4C(=S)N(c5ccc(C#N)c(C(F)(F)F)c5)C(=O)C4(C)C)cc3)cc2)C(C)(C)C)cc1 [Example 131, (2S,4R)-1-[(2S)-2-{2-[(2S)-4-[4-(4-{3-[4-cyano-3-(trifluoromethyl)phenyl]-5,5-dimethyl-4-oxo-2-sulfanylideneimidazolidin-1-yl}phenyl)phenoxy]-2-hydroxybutoxy]acetamido}-3,3-dimethylbutanoyl]-4-hydroxy-N-{[4-(4-methyl-1,3-thiazol-5-yl)phenyl]methyl}pyrrolidine-2-carboxamide]
[2]; VCaP, read-out: VCaP Dmax (%)
  Dmax: > 71%
[1]; Table 37
  GI50: 51 to 250 nM

## Cc1cc(-c2ccc(N3C(=S)N(c4ccc(C#N)c(C(F)(F)F)c4)C(=O)C3(C)C)cc2)ccc1OCCCCOCC(=O)N[C@H](C(=O)N1C[C@H](O)C[C@H]1C(=O)NCc1ccc(-c2scnc2C)cc1)C(C)(C)C [Example 134, (2S,4R)-1-[(2S)-2-(2-{4-[4-(4-{3-[4-cyano-3-(trifluoromethyl)phenyl]-5,5-dimethyl-4-oxo-2-sulfanylideneimidazolidin-1-yl}phenyl)-2-methylphenoxy]butoxy}acetamido)-3,3-dimethylbutanoyl]-4-hydroxy-N-{[4-(4-methyl-1,3-thiazol-5-yl)phenyl]methyl}pyrrolidine-2-carboxamide]
[2]; VCaP, read-out: VCaP Dmax (%)
  Dmax: > 71%
[2]; read-out: VCaP DC50; concentration that caused 50% Androgen Receptor degradation, VCaP cells (Table 32)
  DC50: < 50 nM
[1]; Table 37
  GI50: 51 to 250 nM

## Cc1ncoc1-c1ccc([C@H](C)NC(=O)[C@@H]2C[C@@H](O)CN2C(=O)[C@@H](NC(=O)COCCCCCOc2ccc(C(=O)N[C@H]3C(C)(C)[C@H](Oc4ccc(C#N)c(Cl)c4)C3(C)C)cc2)C(C)(C)C)cc1 [Example 156, (2S,4R)-1-[(2S)-3,3-dimethyl-2-(2-{[5-(4-{[trans--3-(3-chloro-4-cyanophenoxy)-2,2,4,4-tetramethylcyclobutyl]carbamoyl]phen-oxy)pentyl]oxy}acetamido)butanoyl]-4-hydroxy-N-[(1S)-1-[4-(4-methyl-1,3-oxazol-5-yl)phenyl]ethyl]pyrrolidine-2-carboxamide]
[2]; [4]
  Dmax: > 71%
[2]; concentration that caused 50% Androgen Receptor degradation, VCaP cells (Table 32); read-out: VCaP DC50
  DC50: < 50 nM
[1]; Table 37
  GI50: ≤ 50 nM

## Cc1ncsc1-c1ccc([C@H](C)NC(=O)[C@@H]2C[C@@H](O)CN2C(=O)[C@@H](NC(=O)COCCCCCOc2ccc(C(=O)N[C@H]3C(C)(C)[C@H](Oc4ccc(C#N)c(Cl)c4)C3(C)C)cc2)C(C)(C)C)cc1 [Example 157, (2S,4R)-1-[(2S)-3,3-dimethyl-2-(2-{[5-(4-{[trans-3-(3-chloro-4-cyanophenoxy)-2,2,4,4-tetramethylcyclobutyl]carbamoyl}phen-oxy)pentyl]oxy}acetamido)butanoyl]-4-hydroxy-N-[(1S)-1-[4-(4-methyl-1,3-thiazol-5-yl)phenyl]ethyl]pyrrolidine-2-carboxamide]
[2]; [4]
  Dmax: > 71%
[1]; Table 37
  GI50: ≤ 50 nM

## Cc1ncsc1-c1ccc(CNC(=O)[C@@H]2C[C@@H](O)CN2C(=O)[C@@H](NC(=O)CCCOCCCOCCCOc2ccc(N3C(=S)N(c4ccc(C#N)c(C(F)(F)F)c4)C(=O)C3(C)C)cc2)C(C)(C)C)cc1 [Example 301]
[2]; VCaP, read-out: VCaP Dmax (%)
  Dmax: 51 to 70%
[3]
  DC50: < 50 nM
  Dmax: 51 to 70%

## Cc1ncsc1-c1ccc(CNC(=O)[C@@H]2C[C@@H](O)CN2C(=O)[C@@H](NC(=O)CCCOc2ccc(CCOc3ccc(N4C(=S)N(c5ccc(C#N)c(C(F)(F)F)c5)C(=O)C4(C)C)cc3)cc2)C(C)(C)C)cc1 [Example 302]
[2]; VCaP, read-out: VCaP Dmax (%)
  Dmax: 51 to 70%
[2]; [5]
  DC50: < 50 nM
[3]
  DC50: 51 to 500 nM
  Dmax: > 71%

## Cc1ncsc1-c1ccc(CNC(=O)[C@@H]2C[C@@H](O)CN2C(=O)[C@@H](NC(=O)CCc2ccc(OCCOc3ccc(N4C(=S)N(c5ccc(C#N)c(C(F)(F)F)c5)C(=O)C4(C)C)cc3)cc2)C(C)(C)C)cc1 [Example 303]
[2]; VCaP, read-out: VCaP Dmax (%)
  Dmax: 51 to 70%
[2]; [5]
  DC50: < 50 nM
[3]
  DC50: < 50 nM
  Dmax: > 71%

## Cc1ncsc1-c1ccc(CNC(=O)[C@@H]2C[C@@H](O)CN2C(=O)[C@@H](NC(=O)CCOc2ccc(CCOc3ccc(N4C(=S)N(c5ccc(C#N)c(C(F)(F)F)c5)C(=O)C4(C)C)cc3)cc2)C(C)(C)C)cc1 [Example 306]
[2]; VCaP, read-out: VCaP Dmax (%)
  Dmax: 51 to 70%
[3]
  DC50: < 50 nM
  Dmax: > 71%

## Cc1ncsc1-c1ccc(CNC(=O)[C@@H]2C[C@@H](O)CN2C(=O)[C@@H](NC(=O)COCCCOCCCOc2ccc(CN3C(=S)N(c4ccc(C#N)c(C(F)(F)F)c4)C(=O)C3(C)C)cc2)C(C)(C)C)cc1 [Example 307]
[2]; VCaP, read-out: VCaP Dmax (%)
  Dmax: 51 to 70%
[2]; [5]
  DC50: < 50 nM
[3]
  DC50: 51 to 500 nM
  Dmax: 51 to 70%

## Cc1ncsc1-c1ccc(CNC(=O)[C@@H]2C[C@@H](O)CN2C(=O)[C@@H](NC(=O)COCCCOCCCCOc2ccc(CN3C(=S)N(c4ccc(C#N)c(C(F)(F)F)c4)C(=O)C3(C)C)cc2)C(C)(C)C)cc1 [Example 308]
[2]; VCaP, read-out: VCaP Dmax (%)
  Dmax: 51 to 70%
[2]; [5]
  DC50: < 50 nM
[3]
  DC50: 51 to 500 nM
  Dmax: 51 to 70%

## Cc1ncsc1-c1ccc(CNC(=O)[C@@H]2C[C@@H](O)CN2C(=O)[C@@H](NC(=O)CCCOCCN2CCC(c3ccc(N4C(=S)N(c5ccc(C#N)c(C(F)(F)F)c5)C(=O)C4(C)C)cc3)CC2)C(C)(C)C)cc1 [Example 309]
[2]; VCaP, read-out: VCaP Dmax (%)
  Dmax: 26 to 50%
[2]; [5]
  DC50: < 50 nM
[3]
  DC50: > 501 nM
  Dmax: 26 to 50%

## Cc1ncsc1-c1ccc(CNC(=O)[C@@H]2C[C@@H](O)CN2C(=O)[C@@H](NC(=O)C(C)(C)C(O)CCCOCCCCCOc2ccc(N3C(=S)N(c4ccc(C#N)c(C(F)(F)F)c4)C(=O)C3(C)C)cc2)C(C)(C)C)cc1 (stereo partly drawn) [Example 310]
[2]; VCaP, read-out: VCaP Dmax (%)
  Dmax: < 25%
[3]
  DC50: > 501 nM
  Dmax: 26 to 50%
